# Tested on: PBMC from HLA-DQ2+ subjects
# Test: Interferon gamma ELISPOT, initial gliadin epitope screening library
# Assay type: cell-based, human
# Conditions: 15 HLA-DQ2+ subjects, deamidated 20mers
# Excerpt: In initial experiments involving 29 HLA-DQ2+ individuals with coeliac disease on long-term gluten free diet, interferon-gamma ELISPOT assays were used to screen a previous Pepset (described in WO 03/104273, which is incorporated herein by reference) initially as pools of peptides and then in 15 subjects as individual peptides with and without deamidation by tTG. This Pepset library consisted of 652 20mer gliadin peptides spanning all unique 12mers contained within all Genbank entries described as wheat gliadins found in September 2001. This Pepset library was designed “manually” from gene-derived protein sequences aligned using ClustalW software (MegAlign) arranged into phylogenetic groupings.
# Approximately 0.6 micromole of each of 652 of the 20mers was provided. Two marker 20mer peptides were included in each set of 96 ([…]—peptide 161 (SEQ ID NO: 1931), and […] (SEQ ID NO: 1932)) and were characterized by reverse phase-HPLC and amino acid sequence analysis. Average purities of these marker peptides were 19% and 50%, respectively. Peptides were initially dissolved in acetonitrile (10%) and Hepes 100 mM to 10 mg/ml. The final concentration of individual peptides incubated with PBMC for the IFNγ ELISpot assays was 20 mcg/ml. These peptides were deamidated by incubation with guinea pig tissue tTG (Sigma T5398) in the ratio 100:32 mcg/ml for two hours at 37° C. […]
sequence,measurement,value
PQPFPPQLPYPQPQLPYPQP (Description of Artificial Sequence: Synthetic gliadin peptide) [Peptide 91],potency rank in library,most potent gliadin 20mer
